The values that follow come from ChEMBL document CHEMBL1154749, “P2'-truncated BACE-1 inhibitors with a novel hydroxethylene-like core” (Eur J Med Chem, 2010).

SMILES strings stand for the structures. Where only a bound is given, the exact number is not on record here.

Usually IC50 stands for the concentration that gives 50% inhibition.

In this assay the target is Beta-secretase 1 (Homo sapiens, UniProt P56817). Put plainly: Inhibition of human brain BACE1 expressed in Escherichia coli BL21(DE) by TRF assay.
Sequence of Beta-secretase 1 (P56817 whole entry): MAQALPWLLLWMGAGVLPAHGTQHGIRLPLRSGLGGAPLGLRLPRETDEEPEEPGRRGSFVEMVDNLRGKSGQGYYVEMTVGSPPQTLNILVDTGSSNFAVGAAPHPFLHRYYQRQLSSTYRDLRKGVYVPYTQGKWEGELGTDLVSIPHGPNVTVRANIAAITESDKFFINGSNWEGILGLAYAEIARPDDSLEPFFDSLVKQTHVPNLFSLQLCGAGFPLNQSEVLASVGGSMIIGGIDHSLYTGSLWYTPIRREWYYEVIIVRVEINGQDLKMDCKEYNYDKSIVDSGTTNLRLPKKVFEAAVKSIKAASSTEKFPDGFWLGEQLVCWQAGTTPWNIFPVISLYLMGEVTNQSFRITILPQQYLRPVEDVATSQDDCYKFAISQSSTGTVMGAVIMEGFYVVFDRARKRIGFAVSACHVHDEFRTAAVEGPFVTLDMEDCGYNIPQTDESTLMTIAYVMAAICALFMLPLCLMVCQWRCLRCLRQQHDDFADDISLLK
The molecule `COc1ccc(COC[C@@H](C[C@H](O)[C@H](COc2cc(F)cc(F)c2)NC(=O)c2cc(C(=O)N[C@H](C)c3ccccc3)cc(N(C)S(C)(=O)=O)c2)OC)cc1` showed an IC50 of 0.14 µM. `COC[C@@H](C[C@H](O)[C@H](COc1cc(F)cc(F)c1)NC(=O)c1cc(C(=O)N[C@H](C)c2ccccc2)cc(N(C)S(C)(=O)=O)c1)OC` came in with an IC50 greater than 10 µM. With `CO[C@@H](COC(C)C)C[C@H](O)[C@H](COc1cc(F)cc(F)c1)NC(=O)c1cc(C(=O)N[C@H](C)c2ccccc2)cc(N(C)S(C)(=O)=O)c1`, the IC50 amounted to 0.48 µM. Molecule `CO[C@@H](COCc1ccccc1)C[C@H](O)[C@H](COc1cc(F)cc(F)c1)NC(=O)c1cc(C(=O)N[C@H](C)c2ccccc2)cc(N(C)S(C)(=O)=O)c1` had an IC50 of 0.24 µM. To `CO[C@@H](COc1ccccc1)C[C@H](O)[C@H](COc1cc(F)cc(F)c1)NC(=O)c1cc(C(=O)N[C@H](C)c2ccccc2)cc(N(C)S(C)(=O)=O)c1` belongs 6.5 µM. `CO[C@@H](CNCc1ccccc1)C[C@@H](O)[C@H](COc1cc(F)cc(F)c1)NC(=O)c1cc(C(=O)N[C@H](C)c2ccccc2)cc(N(C)S(C)(=O)=O)c1` came in with an IC50 greater than 10 µM. `COc1ccc(COC[C@@H](C[C@H](O)[C@H](COc2cc(F)cc(F)c2)NC(=O)c2cc(N(C)C[C@H]3C[C@@H]3C)nc(N(C)S(C)(=O)=O)c2)OC)cc1` displayed an IC50 of 1.8 µM. `CCc1cn2c3c(ccc(C(=O)N[C@@H](COc4cc(F)cc(F)c4)[C@@H](O)C[C@H](COCc4ccc(OC)cc4)OC)c13)N(C)S(=O)(=O)CC2` yielded an IC50 of 1.5 µM. Molecule `CO[C@@H](CO)C[C@H](O)[C@H](COc1cc(F)cc(F)c1)NC(=O)c1cc(C(=O)N[C@H](C)c2ccccc2)cc(N(C)S(C)(=O)=O)c1` gave an IC50 greater than 10 µM. The molecule `CO[C@@H](COCC1CC1)C[C@H](O)[C@H](COc1cc(F)cc(F)c1)NC(=O)c1cc(C(=O)N[C@H](C)c2ccccc2)cc(N(C)S(C)(=O)=O)c1` had an IC50 of 1.86 µM.

As to `CO[C@@H](CNc1ccccc1)C[C@H](O)[C@H](COc1cc(F)cc(F)c1)NC(=O)c1cc(C(=O)N[C@H](C)c2ccccc2)cc(N(C)S(C)(=O)=O)c1`, half-maximal inhibition (IC50) required 1.5 µM.

As to `C=CCOC[C@@H](C[C@H](O)[C@H](COc1cc(F)cc(F)c1)NC(=O)c1cc(C(=O)N[C@H](C)c2ccccc2)cc(N(C)S(C)(=O)=O)c1)OC`, it took 2.03 µM to reach half-maximal inhibition (IC50). As for `CO[C@@H](COCc1ccc(F)cc1)C[C@H](O)[C@H](COc1cc(F)cc(F)c1)NC(=O)c1cc(C(=O)N[C@H](C)c2ccccc2)cc(N(C)S(C)(=O)=O)c1`, the IC50 was greater than 10 µM. The result for `COc1cccc(COC[C@@H](C[C@H](O)[C@H](COc2cc(F)cc(F)c2)NC(=O)c2cc(C(=O)N[C@H](C)c3ccccc3)cc(N(C)S(C)(=O)=O)c2)OC)c1` reads greater than 10 µM; that for `CO[C@@H](CNc1ccc(F)cc1)C[C@H](O)[C@H](COc1cc(F)cc(F)c1)NC(=O)c1cc(C(=O)N[C@H](C)c2ccccc2)cc(N(C)S(C)(=O)=O)c1`, 1.5 µM; that for `CO[C@@H](CNCc1ccccc1)C[C@H](O)[C@H](COc1cc(F)cc(F)c1)NC(=O)c1cc(C(=O)N[C@H](C)c2ccccc2)cc(N(C)S(C)(=O)=O)c1`, greater than 10 µM.
